Measurements published in patent publication US20080293699A1, “Inhibitors of thapsigargin-induced cell death” (priority 2007, published 2008).

Legend:
Ire1 = Ire1 (Homo sapiens, UniProt O75460); experiment: Ire1 autophosphorylation in vitro kinase assay; assay type: biochemical; settings: 32P-γ-ATP, up to 50 μM
Description: (§1) Suppression of thapsigargin-induced phosphorylation of p38MAPK was also measured by a quantitative ELISA-methods, with IC50 for p38MAPK phosphorylation estimated at <5 μM. In contrast, thapsigargin-induced expression of CHOP, expression of ATF4, proteolytic processing of ATF6, phosphorylation of eIF2a (Ser 51), auto-phosphorylation of Ire1a or auto-phosphorylation of ASK1 were not inhibited directly by CID-2878746 at concentrations up to 50 μM tested by in vitro kinase assay using p32-γ-ATP substrate. […] Thapsigargin-induced reductions in phosphorylation of ASK1 at the serine 967 site in ASK1 transfected 293T cells are inhibited by compound 5962123 at concentrations of 50-100 μM, as determined by immunoblotting using anti-phospho-specific (ser 967) antibody, but thapsigargin-induced changes in phosphorylation of ASK1 at ser 83 and thr 845 are not modulated by compound 5962123 at concentrations as high as 100 μM in ASK1-transfected HEK293T cells.
(§2) C-Jun and p38 MAPK work downstream of the Ire1 pathway (see FIG. 21), we tested whether one of our hit compounds (6239507) inhibits autophosphorylation of any of kinases in this Ire1-ASK1-JNK/p38 MAPK pathway. […] An Ire1 autophosphorylation assay was performed. […] Incorporation values of ^32P-γ-ATP were evaluated by a scintillation counter. […] Incorporation values of ^32P-γ-ATP were evaluated by a scintillation counter. […]

ASK1 = target: T1, ASK1 (Homo sapiens, UniProt Q99683); experiment: ASK1-MKK6-p38 coupled in vitro kinase assay; assay type: biochemical
T1 construct: expressed in transfected cells; host or cells: HEK293T
T1 sequence (Q99683 1-1374): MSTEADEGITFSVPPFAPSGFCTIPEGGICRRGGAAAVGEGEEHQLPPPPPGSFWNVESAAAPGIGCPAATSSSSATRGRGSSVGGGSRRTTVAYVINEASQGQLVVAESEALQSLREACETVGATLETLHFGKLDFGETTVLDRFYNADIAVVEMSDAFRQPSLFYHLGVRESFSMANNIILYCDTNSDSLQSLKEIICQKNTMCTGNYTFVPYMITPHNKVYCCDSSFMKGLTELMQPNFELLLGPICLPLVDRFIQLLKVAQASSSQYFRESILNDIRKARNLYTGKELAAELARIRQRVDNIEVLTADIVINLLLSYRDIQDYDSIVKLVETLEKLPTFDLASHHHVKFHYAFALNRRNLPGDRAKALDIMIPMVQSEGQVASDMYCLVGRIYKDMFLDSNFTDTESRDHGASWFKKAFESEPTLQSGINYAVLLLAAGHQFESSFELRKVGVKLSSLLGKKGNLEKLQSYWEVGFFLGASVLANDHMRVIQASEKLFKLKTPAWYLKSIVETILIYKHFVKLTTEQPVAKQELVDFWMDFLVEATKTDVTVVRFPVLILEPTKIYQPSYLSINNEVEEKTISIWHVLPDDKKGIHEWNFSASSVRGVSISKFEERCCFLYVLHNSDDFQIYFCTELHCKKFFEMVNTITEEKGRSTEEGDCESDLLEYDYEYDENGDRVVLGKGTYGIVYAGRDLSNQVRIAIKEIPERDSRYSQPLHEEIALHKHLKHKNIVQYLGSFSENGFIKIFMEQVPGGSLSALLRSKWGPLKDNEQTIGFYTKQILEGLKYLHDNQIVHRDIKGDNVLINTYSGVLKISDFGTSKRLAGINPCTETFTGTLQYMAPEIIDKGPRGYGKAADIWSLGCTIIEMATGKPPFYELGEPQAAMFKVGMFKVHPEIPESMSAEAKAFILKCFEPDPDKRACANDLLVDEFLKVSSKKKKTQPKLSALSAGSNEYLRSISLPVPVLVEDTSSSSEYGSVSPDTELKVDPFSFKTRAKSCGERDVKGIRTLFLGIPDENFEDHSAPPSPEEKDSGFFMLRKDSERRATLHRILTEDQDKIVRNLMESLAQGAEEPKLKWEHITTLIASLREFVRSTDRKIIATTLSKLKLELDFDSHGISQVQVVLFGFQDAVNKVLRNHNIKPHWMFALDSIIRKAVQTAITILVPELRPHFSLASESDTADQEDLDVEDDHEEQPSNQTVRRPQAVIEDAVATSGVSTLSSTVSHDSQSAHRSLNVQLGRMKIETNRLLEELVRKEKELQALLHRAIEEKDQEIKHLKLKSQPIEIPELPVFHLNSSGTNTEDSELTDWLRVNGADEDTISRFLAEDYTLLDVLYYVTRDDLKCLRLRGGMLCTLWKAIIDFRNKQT
Description: as §1, §2

Sequence of Ire1 (O75460 19-977, species assumed): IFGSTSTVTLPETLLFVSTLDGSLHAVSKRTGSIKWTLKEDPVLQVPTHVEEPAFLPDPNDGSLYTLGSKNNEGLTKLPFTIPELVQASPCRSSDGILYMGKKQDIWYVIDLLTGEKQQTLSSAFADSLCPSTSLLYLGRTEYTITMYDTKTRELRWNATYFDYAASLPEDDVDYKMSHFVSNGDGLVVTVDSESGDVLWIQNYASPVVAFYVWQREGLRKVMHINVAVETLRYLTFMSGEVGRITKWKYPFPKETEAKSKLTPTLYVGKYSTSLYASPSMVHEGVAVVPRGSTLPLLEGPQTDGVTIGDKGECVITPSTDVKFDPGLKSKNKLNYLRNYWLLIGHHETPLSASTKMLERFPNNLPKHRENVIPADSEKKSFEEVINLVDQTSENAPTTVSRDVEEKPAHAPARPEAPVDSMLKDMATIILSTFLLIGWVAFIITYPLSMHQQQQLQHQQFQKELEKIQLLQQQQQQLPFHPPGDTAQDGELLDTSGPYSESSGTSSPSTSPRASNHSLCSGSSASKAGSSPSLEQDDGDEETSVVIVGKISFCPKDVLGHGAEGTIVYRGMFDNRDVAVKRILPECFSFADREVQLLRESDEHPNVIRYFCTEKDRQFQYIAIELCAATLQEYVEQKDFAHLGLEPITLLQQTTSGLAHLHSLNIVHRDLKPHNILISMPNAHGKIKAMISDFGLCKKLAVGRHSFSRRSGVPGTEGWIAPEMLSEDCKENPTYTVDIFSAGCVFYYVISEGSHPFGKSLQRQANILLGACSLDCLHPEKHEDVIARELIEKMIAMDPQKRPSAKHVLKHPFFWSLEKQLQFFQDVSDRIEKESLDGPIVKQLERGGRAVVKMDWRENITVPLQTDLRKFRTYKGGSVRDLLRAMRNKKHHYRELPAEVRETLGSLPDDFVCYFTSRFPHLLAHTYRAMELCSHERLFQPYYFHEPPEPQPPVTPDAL

| SMILES | Ire1 auto-phosphorylation (Ire1; listed as CID-2878746) | Thapsigargin-induced activation of ASK1 in cells (ASK1; coupled assay with MKK6 and p38MAPK, ASK1 immunoprecipitated from compound-treated (100 μM) HEK293T cells) | Ire1 auto-phosphorylation (Ire1) | Ask1's activity with respect to downstream kinases MKK6 and p38 MAPK (ASK1; kinases incubated with 50 μM compound in vitro) |
| --- | --- | --- | --- | --- |
| CCN(CC)c1ccc(C2Nc3ccccc3NC3=C2C(=O)CC(c2ccccc2)C3)cc1 (stereo not shown) [Compound 5962123, 6-(4-diethylaminophenyl)-9-phenyl-5,6,8,9,10,11-hexahydrobenzo[c][1,5]benzodiazepin-7-one] | not inhibited | failed to inhibit | – | – |
| COc1ccc(C2CC(=O)C3=C(C2)Nc2ccccc2NC3c2cccc(Oc3ccccc3)c2)cc1OC (stereo not shown) [Compound 6239507] | – | – | does not modulate | does not modulate |
